According to paper PMC5319852 (Biochemistry, 2016):

Molecular target: Plasmodium vivax geranylgeranyl diphosphate synthase (PvGGPPS) (Plasmodium vivax, UniProt A5K4U6)
Assay: X-ray co-crystal structure
Format: biochemical

With `CCCCCCCCCCOc1cccc(COc2ccc([N+](=O)[O-])cc2C(=O)O)c1` [BPH-1186] the IC50 was 50 µM.
